Assay results reported in patent US10214520B2, “Substituted azaspiro(4.5)decane derivatives” (priority 2014, dated 2019).
Like-named read-outs stand apart in the source and are kept apart here.

Key:
[1] = biological target: human μ opiate receptor (Homo sapiens, UniProt P35372); assay: μ opiate receptor binding assay with [3H]-naloxone, membrane preparation of CHO-K1 cells (WGA-SPA beads)
[2] = mean, read-out: Ki (μ) mean [μm]

human μ opiate receptor, sequence (P35372 whole entry): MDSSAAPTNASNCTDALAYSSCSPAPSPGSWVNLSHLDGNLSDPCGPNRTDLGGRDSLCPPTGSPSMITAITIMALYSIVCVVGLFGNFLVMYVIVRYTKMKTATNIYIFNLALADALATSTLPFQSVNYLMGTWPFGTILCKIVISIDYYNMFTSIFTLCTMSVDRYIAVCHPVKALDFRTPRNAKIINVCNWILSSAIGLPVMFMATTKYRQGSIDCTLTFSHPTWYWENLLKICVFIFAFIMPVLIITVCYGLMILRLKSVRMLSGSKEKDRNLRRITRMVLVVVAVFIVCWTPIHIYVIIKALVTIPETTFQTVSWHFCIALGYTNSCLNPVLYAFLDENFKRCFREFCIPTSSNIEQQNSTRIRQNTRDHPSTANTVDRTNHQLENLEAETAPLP

Row | Structure (SMILES) | Ki [1, 2] [nM] | Ki ([1]; read-out: MOP Ki) [nM] | further results
1 | Cc1ccc(C2(N(C)C)CCC3(CC2)CC(=O)N(C(=O)OC(C)(C)C)C3)s1 (stereo not shown) |  |  | melting point: 165 to 167 °C
2 | CN(C)C1(C(=O)c2ccccc2)CCC2(CCN(Cc3ccccc3)C2)CC1 (single isomer, unassigned) [Example No. 70, [3-Benzyl-8-(dimethylamino)-3-azaspiro[4.5]decan-8-yl]-phenylmethanone] | 465 |  | 
3 | CN(C)C1(C(=O)c2cccs2)CCC2(CCN(Cc3ccccc3)C2)CC1 (single isomer, unassigned) [Example No. 71, [3-Benzyl-8-(dimethylamino)-3-azaspiro[4.5]decan-8-yl]-thiophen-2-ylmethanone] | 127 |  | 
4 | CN(C)C1(C(=O)c2cccs2)CCC2(CCN(Cc3ccccc3)C2)CC1 (single isomer, unassigned) [Example No. 72, [3-Benzyl-8-(dimethylamino)-3-azaspiro[4.5]decan-8-yl]-thiophen-2-ylmethanone] | 805 |  | 
5 | CN(C)C1(c2cccs2)CCC2(CCN(Cc3ccncc3)C2=O)CC1 (stereo not shown) [Example 85] | 260 |  | 
6 | CCCCC1(N(C)C)CCC2(CC1)CC(=O)N(Cc1ccccc1)C2 (stereo not shown) [Example No. 124, 3-Benzyl-8-butyl-8-(dimethylamino)-3-azaspiro[4.5]decan-2-one] | 2970 |  | 
7 | CN(C)[C@]1(c2cnccn2)CC[C@]2(CC1)CC(=O)N(CCCC(N)=O)C2 [SC-1010, Cis-4-(8-Dimethylamino-3-oxo-8-pyrazin-2-yl-2-azaspiro[4.5]decan-2-yl)-butyramide] |  | 825 | 
8 | CN(C)[C@]1(c2ccccn2)CC[C@]2(CC1)CC(=O)N(CCCC(N)=O)C2 [SC-1013, Cis-4-(8-Dimethylamino-3-oxo-8-pyridin-2-yl-2-azaspiro[4.5]decan-2-yl)-butyramide] |  | 2430 | 
9 | COC(=O)c1ccc(N2C[C@]3(CC[C@@](c4ccccc4)(N(C)C)CC3)CC2=O)cc1 [SC-1074, Cis-4-(8-Dimethylamino-3-oxo-8-phenyl-2-azaspiro[4.5]decan-2-yl)-benzoic acid methyl ester] |  | 420 | 
10 | CN(C)[C@]1(c2ccccc2)CC[C@]2(CC1)CC(=O)N(CC(C)(C)C(=O)NCCc1cncnc1)C2 [SC-1184, Cis-3-(8-Dimethylamino-3-oxo-8-phenyl-2-azaspiro[4.5]decan-2-yl)-2,2-dimethyl-N-(2-pyrimidin-5-yl-ethyl)-propionamide] |  | 320 | 
